According to the kinase profiling compilation of Christmann-Franck et al. (2016):

Tests used:
Assay in all cases: KINOMEscan competition binding
KIT (human) = KIT (human) (UniProt P10721)
EPHB1 (human) = EPHB1 (human) (UniProt P54762)
CAMKK1 (human) = CAMKK1 (human) (UniProt Q8N5S9)
CAMK2A (human) = CAMK2A (human) (UniProt Q9UQM7)
ABL1 (human) = ABL1 (human) (UniProt P00519)
ERBB2 (human) = ERBB2 (human) (UniProt P04626)
PIM1 (human) = PIM1 (human) (UniProt P11309)
[1] = biological target: ABL1 (human), P00519 [T315I]
YES1 (human) = YES1 (human) (UniProt P07947)
YES1 (human), sequence (P07947 whole entry, looked up): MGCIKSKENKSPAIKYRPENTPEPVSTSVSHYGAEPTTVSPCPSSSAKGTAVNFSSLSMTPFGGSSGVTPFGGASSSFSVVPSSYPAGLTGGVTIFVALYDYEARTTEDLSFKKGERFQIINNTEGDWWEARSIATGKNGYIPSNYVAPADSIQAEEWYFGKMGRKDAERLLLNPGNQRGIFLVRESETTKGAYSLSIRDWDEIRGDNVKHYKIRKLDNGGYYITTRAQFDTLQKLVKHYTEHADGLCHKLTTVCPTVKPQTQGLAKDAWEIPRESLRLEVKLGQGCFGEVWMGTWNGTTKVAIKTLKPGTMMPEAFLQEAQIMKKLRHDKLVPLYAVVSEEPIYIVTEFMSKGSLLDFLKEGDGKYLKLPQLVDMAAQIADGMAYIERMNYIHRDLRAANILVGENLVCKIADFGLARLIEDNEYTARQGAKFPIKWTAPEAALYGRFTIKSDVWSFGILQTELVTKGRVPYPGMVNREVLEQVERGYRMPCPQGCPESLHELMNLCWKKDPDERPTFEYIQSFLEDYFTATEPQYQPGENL

EPHA4 (human) = EPHA4 (human) (UniProt P54764)
PHKG1 (human) = PHKG1 (human) (UniProt Q16816)
SRC (human) = SRC (human) (UniProt P12931)
SRC (human), sequence (P12931 whole entry, looked up): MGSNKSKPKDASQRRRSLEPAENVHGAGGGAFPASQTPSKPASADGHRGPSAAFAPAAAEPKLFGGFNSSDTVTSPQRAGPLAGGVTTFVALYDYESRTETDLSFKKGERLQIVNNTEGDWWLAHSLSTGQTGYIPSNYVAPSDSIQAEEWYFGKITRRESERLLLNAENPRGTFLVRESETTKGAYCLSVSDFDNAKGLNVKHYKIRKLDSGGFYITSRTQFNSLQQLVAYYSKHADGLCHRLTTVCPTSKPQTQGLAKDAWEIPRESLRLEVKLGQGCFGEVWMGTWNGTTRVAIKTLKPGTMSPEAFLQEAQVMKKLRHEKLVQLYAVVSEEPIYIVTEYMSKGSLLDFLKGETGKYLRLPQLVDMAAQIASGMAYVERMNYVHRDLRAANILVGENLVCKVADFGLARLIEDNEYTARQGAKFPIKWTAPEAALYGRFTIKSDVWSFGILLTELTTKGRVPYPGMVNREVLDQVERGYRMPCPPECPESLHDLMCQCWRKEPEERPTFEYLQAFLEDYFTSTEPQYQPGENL

RPS6KA3 KD1 (human) = RPS6KA3 KD1 (human) (UniProt P51812)
BTK (human) = BTK (human) (UniProt Q06187)
EPHA2 (human) = EPHA2 (human) (UniProt P29317)
FER (human) = FER (human) (UniProt P16591)
FER (human), sequence (P16591 whole entry, looked up): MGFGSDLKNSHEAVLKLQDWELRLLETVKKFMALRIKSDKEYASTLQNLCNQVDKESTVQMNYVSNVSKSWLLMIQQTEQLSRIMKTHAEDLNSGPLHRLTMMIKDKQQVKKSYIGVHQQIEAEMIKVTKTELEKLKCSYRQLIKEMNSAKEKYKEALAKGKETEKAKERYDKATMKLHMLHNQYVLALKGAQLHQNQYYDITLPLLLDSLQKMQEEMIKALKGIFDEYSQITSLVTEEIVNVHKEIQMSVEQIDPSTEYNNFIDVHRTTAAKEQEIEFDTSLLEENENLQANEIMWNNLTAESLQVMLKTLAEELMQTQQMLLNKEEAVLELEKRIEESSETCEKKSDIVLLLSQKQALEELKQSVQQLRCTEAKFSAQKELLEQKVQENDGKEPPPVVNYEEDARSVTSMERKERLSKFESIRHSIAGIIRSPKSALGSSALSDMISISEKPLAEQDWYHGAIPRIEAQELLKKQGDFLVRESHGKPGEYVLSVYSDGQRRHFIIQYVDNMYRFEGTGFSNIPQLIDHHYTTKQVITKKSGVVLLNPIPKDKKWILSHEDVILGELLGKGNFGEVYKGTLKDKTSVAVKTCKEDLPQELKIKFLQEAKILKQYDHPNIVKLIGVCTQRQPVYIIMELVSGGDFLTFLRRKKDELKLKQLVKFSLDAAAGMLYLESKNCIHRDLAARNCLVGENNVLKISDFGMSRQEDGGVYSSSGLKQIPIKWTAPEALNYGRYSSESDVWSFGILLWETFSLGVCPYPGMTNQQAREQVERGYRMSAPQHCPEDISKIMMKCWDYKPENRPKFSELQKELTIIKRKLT

FGFR3 (human) = FGFR3 (human) (UniProt P22607)
FGFR3 (human), sequence (P22607 whole entry, looked up): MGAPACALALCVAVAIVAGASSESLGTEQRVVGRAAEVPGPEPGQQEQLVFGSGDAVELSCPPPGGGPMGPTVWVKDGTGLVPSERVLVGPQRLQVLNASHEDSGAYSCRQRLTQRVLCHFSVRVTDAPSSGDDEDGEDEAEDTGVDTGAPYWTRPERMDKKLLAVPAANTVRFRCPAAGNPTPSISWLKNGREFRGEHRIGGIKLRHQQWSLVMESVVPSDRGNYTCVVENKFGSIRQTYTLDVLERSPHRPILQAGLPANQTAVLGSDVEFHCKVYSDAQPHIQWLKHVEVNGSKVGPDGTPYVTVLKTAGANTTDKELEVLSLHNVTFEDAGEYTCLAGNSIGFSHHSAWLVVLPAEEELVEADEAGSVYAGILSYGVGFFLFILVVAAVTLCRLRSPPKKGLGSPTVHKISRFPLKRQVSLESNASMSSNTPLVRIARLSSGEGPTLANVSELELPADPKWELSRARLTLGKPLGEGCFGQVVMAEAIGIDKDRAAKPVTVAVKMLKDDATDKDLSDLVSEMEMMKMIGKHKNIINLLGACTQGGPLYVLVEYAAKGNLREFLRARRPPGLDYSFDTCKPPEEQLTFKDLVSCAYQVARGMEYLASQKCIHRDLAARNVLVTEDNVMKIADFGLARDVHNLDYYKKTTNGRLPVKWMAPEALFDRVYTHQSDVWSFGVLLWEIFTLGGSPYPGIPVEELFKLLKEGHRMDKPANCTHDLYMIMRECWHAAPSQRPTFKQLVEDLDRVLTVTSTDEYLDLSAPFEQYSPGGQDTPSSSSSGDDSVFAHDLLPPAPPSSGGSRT

HCK (human) = HCK (human) (UniProt P08631)
HCK (human), sequence (P08631 whole entry, looked up): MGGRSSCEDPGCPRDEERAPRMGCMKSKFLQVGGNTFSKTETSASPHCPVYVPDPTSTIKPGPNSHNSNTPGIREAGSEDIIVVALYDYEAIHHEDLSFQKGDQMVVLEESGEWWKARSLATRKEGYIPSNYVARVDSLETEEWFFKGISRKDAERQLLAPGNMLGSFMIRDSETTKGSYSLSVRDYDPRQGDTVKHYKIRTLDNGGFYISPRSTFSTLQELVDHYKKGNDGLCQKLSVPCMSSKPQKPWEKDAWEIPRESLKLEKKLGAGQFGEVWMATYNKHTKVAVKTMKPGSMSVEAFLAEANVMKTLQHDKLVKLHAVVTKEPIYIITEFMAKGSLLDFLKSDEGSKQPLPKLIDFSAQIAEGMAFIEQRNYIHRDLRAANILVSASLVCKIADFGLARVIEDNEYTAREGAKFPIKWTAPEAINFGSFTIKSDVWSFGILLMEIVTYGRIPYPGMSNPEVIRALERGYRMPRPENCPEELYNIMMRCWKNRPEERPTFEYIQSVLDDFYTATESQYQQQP

FGR (human) = FGR (human) (UniProt P09769)
KDR (human) = KDR (human) (UniProt P35968)
PDGFRB (human) = PDGFRB (human) (UniProt P09619)
PAK4 (human) = PAK4 (human) (UniProt O96013)
FLT3 (human) = FLT3 (human) (UniProt P36888)
FYN (human) = FYN (human) (UniProt P06241)
PAK7 (human) = PAK7 (human) (UniProt Q9P286)
MYLK2 (human) = MYLK2 (human) (UniProt Q9H1R3)
NTRK1 (human) = NTRK1 (human) (UniProt P04629)
CLK3 (human) = CLK3 (human) (UniProt P49761)
CSNK1G1 (human) = CSNK1G1 (human) (UniProt Q9HCP0)
CSNK1G1 (human), sequence (Q9HCP0 whole entry, looked up): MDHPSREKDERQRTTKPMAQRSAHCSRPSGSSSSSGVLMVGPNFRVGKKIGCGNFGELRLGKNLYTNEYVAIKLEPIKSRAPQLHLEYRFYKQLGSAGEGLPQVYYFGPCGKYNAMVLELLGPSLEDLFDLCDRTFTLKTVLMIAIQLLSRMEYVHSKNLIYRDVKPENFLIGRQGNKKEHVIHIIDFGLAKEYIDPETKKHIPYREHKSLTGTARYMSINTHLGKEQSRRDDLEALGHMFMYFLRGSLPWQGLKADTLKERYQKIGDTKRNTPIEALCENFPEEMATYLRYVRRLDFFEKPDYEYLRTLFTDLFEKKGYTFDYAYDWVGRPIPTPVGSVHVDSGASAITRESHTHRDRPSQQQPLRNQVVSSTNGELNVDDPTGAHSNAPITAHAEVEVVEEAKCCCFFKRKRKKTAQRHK

NEK9 (human) = NEK9 (human) (UniProt Q8TD19)
TNK2 (human) = TNK2 (human) (UniProt Q07912)
NEK2 (human) = NEK2 (human) (UniProt P51955)
CSK (human) = CSK (human) (UniProt P41240)
[2] = biological target: ABL1 (human), P00519 [Q252H]
TEK (human) = TEK (human) (UniProt Q02763)
PTK2 (human) = PTK2 (human) (UniProt Q05397)
PKMYT1 (human) = PKMYT1 (human) (UniProt Q99640)
PAK1 (human) = PAK1 (human) (UniProt Q13153)
STK16 (human) = STK16 (human) (UniProt O75716)
STK16 (human), sequence (O75716 whole entry, looked up): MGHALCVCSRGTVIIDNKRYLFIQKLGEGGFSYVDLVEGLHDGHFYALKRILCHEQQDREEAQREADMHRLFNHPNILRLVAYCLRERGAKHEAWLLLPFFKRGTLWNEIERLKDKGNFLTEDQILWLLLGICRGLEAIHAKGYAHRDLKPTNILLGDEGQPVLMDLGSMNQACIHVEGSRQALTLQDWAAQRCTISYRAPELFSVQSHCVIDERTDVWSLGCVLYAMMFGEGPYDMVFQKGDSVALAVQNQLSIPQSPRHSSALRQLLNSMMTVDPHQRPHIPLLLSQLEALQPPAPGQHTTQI

[3] = biological target: ABL1 (human), P00519 [H396P]
FGFR2 (human) = FGFR2 (human) (UniProt P21802)
FGFR2 (human), sequence (P21802 whole entry, looked up): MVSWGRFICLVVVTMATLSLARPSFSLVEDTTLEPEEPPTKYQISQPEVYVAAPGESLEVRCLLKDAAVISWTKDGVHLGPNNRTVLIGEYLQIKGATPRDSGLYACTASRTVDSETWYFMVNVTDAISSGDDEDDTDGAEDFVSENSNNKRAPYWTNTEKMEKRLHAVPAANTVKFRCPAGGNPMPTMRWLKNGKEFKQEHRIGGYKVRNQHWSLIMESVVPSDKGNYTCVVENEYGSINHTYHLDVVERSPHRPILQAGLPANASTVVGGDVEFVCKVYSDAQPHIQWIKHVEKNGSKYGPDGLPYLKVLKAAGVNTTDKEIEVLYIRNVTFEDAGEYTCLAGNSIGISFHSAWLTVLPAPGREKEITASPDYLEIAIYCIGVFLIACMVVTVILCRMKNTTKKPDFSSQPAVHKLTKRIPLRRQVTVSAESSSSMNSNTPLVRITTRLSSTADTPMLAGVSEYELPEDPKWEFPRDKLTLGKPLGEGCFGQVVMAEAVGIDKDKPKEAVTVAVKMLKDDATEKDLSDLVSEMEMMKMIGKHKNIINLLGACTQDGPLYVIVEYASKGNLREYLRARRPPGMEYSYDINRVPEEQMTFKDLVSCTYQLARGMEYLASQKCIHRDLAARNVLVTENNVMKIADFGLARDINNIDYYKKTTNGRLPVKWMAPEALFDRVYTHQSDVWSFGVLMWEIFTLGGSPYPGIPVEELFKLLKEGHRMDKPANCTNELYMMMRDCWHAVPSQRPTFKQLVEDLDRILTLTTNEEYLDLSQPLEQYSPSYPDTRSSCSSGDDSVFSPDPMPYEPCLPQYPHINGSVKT

NEK6 (human) = NEK6 (human) (UniProt Q9HC98)

Compound O=C1c2ccccc2-c2n[nH]c3cccc1c23 has a Kd (KIT (human)) greater than 10 µM, a Kd (EPHB1 (human)) greater than 10 µM and a Kd (CAMKK1 (human)) greater than 10 µM. The Kd (CAMK2A (human)) was greater than 10 µM, the Kd (ABL1 (human)) was greater than 10 µM and the Kd (ERBB2 (human)) was greater than 10 µM. For the same compound, the Kd (PIM1 (human)) was greater than 10 µM, the Kd [1] was greater than 10 µM and the Kd (YES1 (human)) was greater than 10 µM. The Kd (EPHA4 (human)) was greater than 10 µM, the Kd (PHKG1 (human)) was greater than 10 µM and the Kd (SRC (human)) was greater than 10 µM. It also gave a Kd (RPS6KA3 KD1 (human)) greater than 10 µM, a Kd (BTK (human)) greater than 10 µM and a Kd (EPHA2 (human)) greater than 10 µM. For the same compound, the Kd (FER (human)) was greater than 10 µM, the Kd (FGFR3 (human)) was greater than 10 µM and the Kd (HCK (human)) was greater than 10 µM. The Kd (FGR (human)) was greater than 10 µM, the Kd (KDR (human)) was greater than 10 µM and the Kd (PDGFRB (human)) was greater than 10 µM. For the same compound, the Kd (PAK4 (human)) was greater than 10 µM, the Kd (FLT3 (human)) was greater than 10 µM and the Kd (FYN (human)) was greater than 10 µM. The Kd (PAK7 (human)) was greater than 10 µM, the Kd (MYLK2 (human)) was greater than 10 µM and the Kd (NTRK1 (human)) was greater than 10 µM. The Kd (CLK3 (human)) was greater than 10 µM, the Kd (CSNK1G1 (human)) was 3.7 µM and the Kd (NEK9 (human)) was greater than 10 µM. It also gave a Kd (TNK2 (human)) greater than 10 µM, a Kd (NEK2 (human)) greater than 10 µM and a Kd (CSK (human)) greater than 10 µM. The Kd [2] was greater than 10 µM, the Kd (TEK (human)) was greater than 10 µM and the Kd (PTK2 (human)) was greater than 10 µM. It also gave a Kd (PKMYT1 (human)) greater than 10 µM, a Kd (PAK1 (human)) greater than 10 µM and a Kd (STK16 (human)) of 0.51 µM. For the same compound, the Kd [3] was greater than 10 µM, the Kd (FGFR2 (human)) was 1.9 µM and the Kd (NEK6 (human)) was greater than 10 µM.

Oc1ccc(-c2nc(-c3ccc(F)cc3)c(-c3ccncc3)[nH]2)cc1 was tested, and the Kd (KIT (human)) was greater than 10 µM, the Kd (EPHB1 (human)) was greater than 10 µM and the Kd (CAMKK1 (human)) was greater than 10 µM. It also gave a Kd (CAMK2A (human)) greater than 10 µM, a Kd (ABL1 (human)) greater than 10 µM and a Kd (ERBB2 (human)) greater than 10 µM. It also gave a Kd (PIM1 (human)) greater than 10 µM, a Kd [1] greater than 10 µM and a Kd (YES1 (human)) greater than 10 µM. It also gave a Kd (EPHA4 (human)) greater than 10 µM, a Kd (PHKG1 (human)) greater than 10 µM and a Kd (SRC (human)) greater than 10 µM. It also gave a Kd (RPS6KA3 KD1 (human)) greater than 10 µM, a Kd (BTK (human)) greater than 10 µM and a Kd (EPHA2 (human)) greater than 10 µM. It also gave a Kd (FER (human)) greater than 10 µM, a Kd (FGFR3 (human)) greater than 10 µM and a Kd (HCK (human)) greater than 10 µM. It also gave a Kd (FGR (human)) greater than 10 µM, a Kd (KDR (human)) greater than 10 µM and a Kd (PDGFRB (human)) greater than 10 µM. It also gave a Kd (PAK4 (human)) greater than 10 µM, a Kd (FLT3 (human)) greater than 10 µM and a Kd (FYN (human)) greater than 10 µM. The Kd (PAK7 (human)) was greater than 10 µM, the Kd (MYLK2 (human)) was greater than 10 µM and the Kd (NTRK1 (human)) was greater than 10 µM. The Kd (CLK3 (human)) was greater than 10 µM, the Kd (CSNK1G1 (human)) was greater than 10 µM and the Kd (NEK9 (human)) was greater than 10 µM. For the same compound, the Kd (TNK2 (human)) was greater than 10 µM, the Kd (NEK2 (human)) was greater than 10 µM and the Kd (CSK (human)) was greater than 10 µM. The Kd [2] was greater than 10 µM, the Kd (TEK (human)) was greater than 10 µM and the Kd (PTK2 (human)) was greater than 10 µM. For the same compound, the Kd (PKMYT1 (human)) was greater than 10 µM, the Kd (PAK1 (human)) was greater than 10 µM and the Kd (STK16 (human)) was greater than 10 µM. It also gave a Kd [3] greater than 10 µM, a Kd (FGFR2 (human)) greater than 10 µM and a Kd (NEK6 (human)) greater than 10 µM.
